Source: patent EP1043318A1 (priority 1997, dated 1999)

Test system: M. tuberculosis 16R
Format: cell-based
Details: strain resistant to control preparations; concentration of the preparation 50.0 g/l (table title); incubated 30 days

Compound	M. tuberculosis 16R growth
NNC(=O)c1ccncc1 [Isoniazid]	growth
O=C1NC(=S)NC(=O)C1C(c1ccc([N+](=O)[O-])cc1)C1C(=O)NC(=S)NC1=O [X, 5,5'-(p-nitrobenzylidene)bis (2-thiobarbituric) acid]	complete suppression of growth
CC[C@@H](CO)NCCN[C@@H](CC)CO [Ethambutol]	growth
[H]/N=C(/N)N[C@H]1[C@H](O)[C@@H](O)[C@H](O[C@@H]2O[C@@H](C)[C@](O)(C=O)[C@H]2O[C@@H]2O[C@@H](CO)[C@H](O)[C@@H](O)[C@@H]2NC)[C@@H](N/C(N)=N\[H])[C@@H]1O [Streptomycin]	growth
